# Assay results published in paper PMC9633773, “Discovering cell-active BCL6 inhibitors: effectively combining biochemical HTS with multiple biophysical techniques, X-ray crystallography and cell-based assays” (Scientific Reports, 2022).
# Like-named read-outs stand apart in the source and are kept apart here.
# What was measured:
# [1] = PAMPA passive permeability; format: in vitro ADME; design: PAMPA pH7.4: unit not given here; conditions: pH 7.4
# Method: Passive diffusion permeability was measured using a parallel artificial membrane permeability assay (PAMPA). The assay used an artificial membrane consisting of 2% (v/v) phosphatidyl choline in dodecane (Sigma Aldrich, Dorset, UK). The donor plate was a MultiScreen-IP Plate with a 0.45 µm hydrophobe Immobilon-P membrane (Millipore, UK) and the acceptor plate was a MultiScreen 96-well transport receiver plate (Millipore, UK). The permeability of test compound (10 µM) was measured at pH 7.4 in buffer containing 1% (w/v) Bovine Serum Albumin (Sigma Aldrich, Dorset, UK) following a 16 h incubation at 30 °C. After transfer and centrifugation, sample supernatants were diluted and analysed using a Waters (Milford, MA, US) TQ-S LC-MS/MS system. Permeability values (cm/s) were calculated using the following equation, where VD and VA are the volumes of donor and acceptor, respectively, and area is the surface area of the membrane x porosity: Papp=C x ln1-Drugacceptor/Drugequilibrium,whereC=VDxVA/VD+VAx area x time
# [2] = target: T1, full-length BCL6/SMRT protein–protein interaction in HEK293T cells (Homo sapiens, UniProt P41182); experiment: NanoBRET cellular assay; format: cell-based
# T1 construct: DNA encoding full length BCL6 and SMRT was inserted into pFC32K NanoLuc and pFC14K HaloTag vectors; expressed in transfected cells; host or cells: HEK293T
# HPLC aqueous solubility = format: physicochemical; conditions: aqueous buffer, kinetic from dmso stock; PBS buffer pH 7.4, 1% DMSO, maximum targeted concentration 100 µM; read-out: HPLC Sol.
# Method: Solubility measurements by quantitative ^1H-NMR or HPLC method were performed as described previously.
# [3] = target: T2, ePL-tagged BCL6 BTB in HEK293T cells (Homo sapiens, UniProt P41182); experiment: InCELL Hunter cellular target engagement assay; format: cell-based
# T2 construct: BCL6 BTB domain (HDSD51 plasmid construct encoding amino-acids 14–135) fused to a C-terminal ePL tag; expressed in transfected cells; host or cells: HEK293T
# Method: BCL6 cellular target engagement assays were established using the InCELL Hunter™ Target Engagement Kit from DiscoverX-Eurofin. For the assay, the expressed protein comprised the N-terminal truncated region of BCL6 BTB domain (HDSD51 plasmid construct encoding amino-acids 14–135) fused to a C-terminal ePL tag (enhanced ProLabel, DiscoverX). Constructs were transfected over 24 h in HEK293T cells using Lipofectamine 3000 (ThermoFisher Scientific) and 2.5 × 10^5 transfected cells / well in phenol red-free OptiMEM medium (ThermoFisher Scientific) were re-plated in 384 assay plates before treating with compounds for 6 h. To complete the assay, cells were incubated for 30 min at room temperature with the InCell Hunter assay reagents mix following the manufacturer’s instructions, before reading the chemiluminescent signal on an Envision (Perkin Elmer) plate reader.
# Trx-6His-BCL6 BTB = target: T3, Trx-6His-BCL6 BTB (Homo sapiens, UniProt P41182); experiment: TR-FRET assay, Trx-6His-BCL6 BTB / BCOR-A633 peptide; format: biochemical
# T3 construct: made in house; host or cells: E. coli BL21-AI
# Method: Each 15 µL TR-FRET reaction in 384-well black Proxiplate (Perkin Elmer) contained 1 or 10 nM Trx-6His-BCL6 BTB, 300 nM BCOR-A633 and 0.5 or 1 nM anti-6His-Terbium cryptate (Perkin Elmer), in the FP assay buffer (25 mM Hepes pH 8, 100 mM NaCl, 0.05% (v/v) Tween20, 0.5 mM TCEP), supplemented with 0.05% (w/v) bovine serum albumin. Test compounds in DMSO or DMSO alone were added to the wells using and Echo 550 acoustic dispenser to give the appropriate test concentration in 0.7% v/v DMSO final. After a 2 h incubation at room temperature, the plates were read on an Envision plate reader or a Pherastar FSX plate reader with 337 nm laser excitation, a first emission filter at 665 nm and a second emission filter at 615 or 620 nm. Data were normalised and IC50 determined as described above for the FP assay.
# Caco-2 efflux ratio = format: in vitro ADME; conditions: human
Compound,PAMPA pH7.4 [1],"IC50 ([2]; BCL6.NanoLuc/SMRT.HaloTag configuration, HEK293T, 6 h, geometric mean n=3–4, read-out: Nano BRET Geo Mean IC50) [nM]","NanoBRET inhibition, HaloTag.BCL6/NanoLuc.SMRT combination ([2]; BCL6 N-terminally fused to HaloTag)","IC50 ([2]; Figure 7B, C-terminally NanoLuc tagged BCL6 / SMRT.HaloTag, read-out: NanoBRET IC50, BCL6.NanoLuc) [nM]",solubility kinetic (HPLC aqueous solubility) [µM],"EC50 ([3]; Figure 6B, ePL-tagged BCL6 BTB 14–135, 6 h, n=3, read-out: InCELL Hunter EC50) [nM]","EC50 ([3]; Table S3, C-terminally ePL-tagged BCL6 BTB 14-135, 6 hours, read-out: InCELL Geomean EC50) [nM]","IC50 (Trx-6His-BCL6 BTB; 1 nM BCL6 BTB domain, geometric mean n=3–5, read-out: TR-FRET Geo Mean IC50) [nM]","Papp at 16 h, 10 µM ([1]; PAMPA, read-out: PAMPA passive cell permeability) [×10⁻⁶ cm/s]","IC50 (Trx-6His-BCL6 BTB; 1 or 10 nM Trx-6His-BCL6 BTB, read-out: TR-FRET IC50) [nM]",efflux ratio (Caco-2 efflux ratio)
CNC(=O)c1cc(Nc2ccc3c(c2)n(CCC(C)(C)O)c(=O)n3C)c(C#N)c(Cl)n1 [Compound 27],19,2930,only very weak inhibition,3000,80,24000 ± 9000,23700,500,–,–,–
"CC(C)OC(=O)c1cc(Nc2ccc3c(c2)CC(=O)N3C)n2nccc2n1 [Compound 25, isopropyl 7-((1-methyl-2-oxoindolin-5-yl)amino)pyrazolo[1,5-a]pyrimidine-5-carboxylate]",–,–,–,–,–,–,–,–,110,2100 ± 100,0.72
